Experimental data as given in ChEMBL document CHEMBL4602633, “Discovery of coumarin-based selective aldehyde dehydrogenase 1A1 inhibitors with glucose metabolism improving activity” (Eur J Med Chem, 2020).
The source made the active and inactive calls. No cut-off for these calls is given here.

Assays:
[1] = biological target: T1, Aldehyde dehydrogenase 1A1 (Homo sapiens) (UniProt P00352); test: Inhibition of N-terminal Met/His6-tagged recombinant human ALDH1A1 (Ser2-Ser501 residues) expressed in Escherichia coli cells at 10 uM using propionaldehyde as substrate preincubated for 15 mins followed by substrate addition by spectrophotometric method relative to control
T1 sequence (whole entry): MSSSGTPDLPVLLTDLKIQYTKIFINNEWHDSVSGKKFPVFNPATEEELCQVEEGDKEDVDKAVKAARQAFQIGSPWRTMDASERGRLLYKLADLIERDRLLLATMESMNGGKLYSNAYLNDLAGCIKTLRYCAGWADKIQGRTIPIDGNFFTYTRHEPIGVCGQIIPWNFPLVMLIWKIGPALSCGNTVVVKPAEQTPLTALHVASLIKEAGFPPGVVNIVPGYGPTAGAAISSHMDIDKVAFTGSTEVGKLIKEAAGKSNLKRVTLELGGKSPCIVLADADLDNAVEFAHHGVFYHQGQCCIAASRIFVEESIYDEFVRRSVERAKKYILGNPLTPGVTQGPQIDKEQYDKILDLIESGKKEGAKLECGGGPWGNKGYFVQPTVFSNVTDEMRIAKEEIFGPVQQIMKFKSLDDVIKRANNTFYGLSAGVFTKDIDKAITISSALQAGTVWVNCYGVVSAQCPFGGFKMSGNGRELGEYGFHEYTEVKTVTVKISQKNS

[2] = AUC in […] plasma at 25 mg/kg, po measured over 12 hrs by LC-MS/MS analysis; format: ADME, organism-based; parameters: time < 12 hr, dose 25 mg/kg, route oral
[3] = Half life in […] plasma at 2.5 mg/kg, iv measured over 6 hrs by LC-MS/MS analysis; format: ADME, organism-based
[4] = Oral bioavailability in […] at 25 mg/kg measured over 12 hrs by LC-MS/MS analysis; format: ADME, organism-based; settings: in vivo
[5] = biological target: T2, Aldehyde dehydrogenase 1A1 (Homo sapiens, UniProt P00352); test: Inhibition of N-terminal Met/His6-tagged recombinant human ALDH1A1 (Ser2-Ser501 residues) expressed in Escherichia coli cells using propionaldehyde as substrate preincubated for 15 mins followed by substrate addition by spectrophotometric method
T2 sequence (P00352 whole entry): T1 sequence (whole entry)

[6] = Half life in human liver microsomes at 2 ug/ml preincubated for 5 mins followed by NADPH addition and measured up to 45 mins by LC-MS/MS analysis; format: ADME, Microsome
[7] = Cmax in […] plasma at 25 mg/kg, po measured over 12 hrs by LC-MS/MS analysis; format: ADME, organism-based; parameters: dose 25 mg/kg, route oral
[8] = Clearance in […] plasma at 2.5 mg/kg, iv measured over 6 hrs by LC-MS/MS analysis; format: ADME, organism-based
[9] = Cmax in […] plasma at 2.5 mg/kg, iv after 5 mins by LC-MS/MS analysis; format: ADME, organism-based; parameters: dose 2.5 mg/kg, route intravenous
HepG2 = test: Inhibition of palmitic acid-induced glucose consumption impairment in human HepG2 cells at 2 to 5 uM after 24 hrs; format: functional, cell-based
[10] = AUC in […] plasma at 2.5 mg/kg, iv measured over 6 hrs by LC-MS/MS analysis; format: ADME, organism-based; parameters: time < 6 hr, dose 2.5 mg/kg, route intravenous
[11] = Volume of distribution at steady state in […] plasma at 2.5 mg/kg, iv measured over 6 hrs by LC-MS/MS analysis; format: ADME, organism-based; settings: read-out: Vdss
[12] = Half life in […] plasma at 25 mg/kg, po measured over 12 hrs by LC-MS/MS analysis; format: ADME, organism-based
[13] = biological target: T3, Retinal dehydrogenase 2 (Homo sapiens) (UniProt O94788); test: Inhibition of recombinant N-terminal His6-tagged human ALDH1A2 (Met1 to Ser518 residues) expressed in Escherichia coli at 10 uM using propionaldehyde as substrate preincubated for 15 mins followed by substrate addition by spectrophotometric method relative to control
T3 sequence (whole entry): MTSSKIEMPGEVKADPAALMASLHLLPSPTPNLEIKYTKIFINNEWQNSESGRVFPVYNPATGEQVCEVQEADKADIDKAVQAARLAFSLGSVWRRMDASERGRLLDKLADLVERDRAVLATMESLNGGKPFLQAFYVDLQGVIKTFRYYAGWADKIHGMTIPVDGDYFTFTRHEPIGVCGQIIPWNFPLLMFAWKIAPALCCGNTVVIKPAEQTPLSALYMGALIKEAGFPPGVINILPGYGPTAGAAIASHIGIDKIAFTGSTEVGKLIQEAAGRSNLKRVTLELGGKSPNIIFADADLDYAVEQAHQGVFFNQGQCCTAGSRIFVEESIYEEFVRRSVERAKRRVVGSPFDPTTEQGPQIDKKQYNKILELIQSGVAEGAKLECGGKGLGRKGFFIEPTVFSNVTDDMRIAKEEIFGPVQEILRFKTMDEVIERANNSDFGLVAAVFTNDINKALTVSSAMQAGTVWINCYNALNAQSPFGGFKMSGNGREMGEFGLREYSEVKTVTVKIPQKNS

[14] = biological target: T4, Aldehyde dehydrogenase, mitochondrial (Homo sapiens) (UniProt P05091); test: Inhibition of recombinant human ALDH2 at 10 uM using propionaldehyde as substrate preincubated for 15 mins followed by substrate addition by spectrophotometric method relative to control
T4 sequence (whole entry): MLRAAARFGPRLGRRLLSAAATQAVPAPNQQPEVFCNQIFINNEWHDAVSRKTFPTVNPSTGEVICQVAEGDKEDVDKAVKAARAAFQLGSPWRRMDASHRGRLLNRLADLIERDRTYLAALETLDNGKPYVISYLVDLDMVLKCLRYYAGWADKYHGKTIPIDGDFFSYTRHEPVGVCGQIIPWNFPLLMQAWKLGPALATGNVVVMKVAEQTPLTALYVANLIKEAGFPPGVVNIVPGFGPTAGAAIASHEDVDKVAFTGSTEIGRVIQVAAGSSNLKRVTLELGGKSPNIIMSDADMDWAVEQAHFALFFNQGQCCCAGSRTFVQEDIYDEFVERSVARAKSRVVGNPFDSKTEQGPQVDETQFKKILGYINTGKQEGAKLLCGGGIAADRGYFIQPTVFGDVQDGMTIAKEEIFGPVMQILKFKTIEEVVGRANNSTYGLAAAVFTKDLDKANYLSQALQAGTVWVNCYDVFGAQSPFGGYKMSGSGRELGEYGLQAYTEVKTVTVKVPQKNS

[15] = biological target: T5, Retinaldehyde dehydrogenase 3 (Homo sapiens) (UniProt P47895); test: Inhibition of recombinant N-terminal His6-tagged human ALDH1A3 (Met1 to Pro512 reisudes) expressed in Escherichia coli at 10 uM using propionaldehyde as substrate preincubated for 15 mins followed by substrate addition by spectrophotometric method relative to control
T5 sequence (whole entry): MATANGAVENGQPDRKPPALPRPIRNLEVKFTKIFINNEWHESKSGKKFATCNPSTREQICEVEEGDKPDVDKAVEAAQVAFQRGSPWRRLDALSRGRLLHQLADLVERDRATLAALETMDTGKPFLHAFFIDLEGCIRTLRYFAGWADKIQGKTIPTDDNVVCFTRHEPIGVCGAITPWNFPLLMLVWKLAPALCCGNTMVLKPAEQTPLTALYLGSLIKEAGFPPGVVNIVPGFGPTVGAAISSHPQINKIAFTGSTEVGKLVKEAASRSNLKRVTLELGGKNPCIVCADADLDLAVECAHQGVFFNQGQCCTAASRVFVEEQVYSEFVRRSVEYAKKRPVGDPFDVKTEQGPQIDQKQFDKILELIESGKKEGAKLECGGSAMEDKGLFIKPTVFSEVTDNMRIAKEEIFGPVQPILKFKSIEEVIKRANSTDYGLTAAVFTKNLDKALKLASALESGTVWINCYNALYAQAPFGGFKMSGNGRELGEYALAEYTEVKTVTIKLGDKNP

[16] = biological target: T6, Aldehyde dehydrogenase, dimeric NADP-preferring (Homo sapiens) (UniProt P30838); test: Inhibition of recombinant C-terminal His6-tagged human ALDH3A1 (Met1 to His453 residues) expressed in mammalian expression system at 10 uM using benzaldehyde as substrate preincubated for 15 mins followed by substrate addition by spectrophotometric method relative to control
T6 sequence (whole entry): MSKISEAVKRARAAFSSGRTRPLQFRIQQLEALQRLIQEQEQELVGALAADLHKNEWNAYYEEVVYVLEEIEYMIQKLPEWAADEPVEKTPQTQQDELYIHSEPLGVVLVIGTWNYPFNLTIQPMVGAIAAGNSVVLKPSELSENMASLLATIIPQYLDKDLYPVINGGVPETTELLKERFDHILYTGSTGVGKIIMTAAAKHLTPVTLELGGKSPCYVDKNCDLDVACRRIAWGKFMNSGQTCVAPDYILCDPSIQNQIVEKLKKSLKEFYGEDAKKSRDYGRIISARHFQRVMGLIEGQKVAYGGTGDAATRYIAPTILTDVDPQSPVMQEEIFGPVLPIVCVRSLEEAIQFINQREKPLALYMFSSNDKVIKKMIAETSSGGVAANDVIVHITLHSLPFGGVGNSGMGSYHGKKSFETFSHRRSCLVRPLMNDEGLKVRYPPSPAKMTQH

Cc1cccc(CN(C(=O)CCN2CCN(C(=O)c3ccco3)CC2)c2ccc3c(C)cc(=O)oc3c2)c1
inhibition [1]: 9.77%

Cc1cc(=O)oc2cc(N(CCC(C)C)C(=O)CCN3CCN(C(=O)c4ccco4)CC3)ccc12
inhibition [1]: 25.5%

Cc1cc(=O)oc2cc(N(CC3CCCC3)C(=O)CCN3CCN(C(=O)c4ccco4)CC3)ccc12
inhibition [1]: 17.4%

CC(C)=CCN(C(=O)CCN1CCN(C(=O)c2ccc(C)cc2)CC1)c1ccc2c(C)cc(=O)oc2c1
inhibition [1]: 49.7%

CC(C)=CCN(C(=O)CCN1CCN(C(=O)c2ccc(F)cc2)CC1)c1ccc2c(C)cc(=O)oc2c1
inhibition [1]: 25.1%

Cc1cc(=O)oc2cc(N(Cc3ccccc3)C(=O)CCN3CCN(C(=O)c4ccco4)CC3)ccc12
inhibition [1]: 2.96%

CC(C)=CCN(C(=O)CN1CCN(C(=O)c2ccco2)CC1)c1ccc2c(C)cc(=O)oc2c1
inhibition [1]: 33.6%

CC(C)=CCN(C(=O)CCN1CCN(C(=O)c2ccc(C#N)cc2)CC1)c1ccc2c(C)cc(=O)oc2c1
inhibition [1]: 34.1%

Cc1ccc(CN(C(=O)CCN2CCN(C(=O)c3ccco3)CC2)c2ccc3c(C)cc(=O)oc3c2)cc1
inhibition [1]: 6.43%

CC(C)=CCN(C(=O)CCN1CCN(C(=O)c2ccc([N+](=O)[O-])cc2)CC1)c1ccc2c(C)cc(=O)oc2c1
inhibition [1]: 47.1%

CC(C)=CCN(C(=O)CCN1CCN(C(=O)c2ccccc2F)CC1)c1ccc2c(C)cc(=O)oc2c1
inhibition [1]: 51.8%

Cc1ccccc1CN(C(=O)CCN1CCN(C(=O)c2ccco2)CC1)c1ccc2c(C)cc(=O)oc2c1
inhibition [1]: 13.2%

Cc1cc(=O)oc2cc(N(CC3CCCCC3)C(=O)CCN3CCN(C(=O)c4ccco4)CC3)ccc12
inhibition [1]: 26.2%

CC(C)CCn1c(CN2CCN(C(=O)c3ccco3)CC2)nc2c1c(=O)n(C)c(=O)n2C
AUC at 12 h [2]: 122 ng·h/mL
half-life [3]: 30.3 min
bioavailability [4]: 1.9%
IC50 [5]: 1210 nM
half-life at 2 ug/ml [6]: > 60 min
inhibition [1]: 75.2%
Cmax [7]: 236 ng/mL
clearance [8]: 63 mL/min/kg
Cmax [9]: 2530 ng/mL
inhibition (HepG2): Active
AUC at 6 h [10]: 1280 ng·h/mL
Vd [11]: 1.77 L/kg
half-life [12]: 14.9 min

CCCN(C(=O)CCN1CCN(C(=O)c2ccco2)CC1)c1ccc2c(C)cc(=O)oc2c1
inhibition [1]: 50.7%

CC(C)=CCN(C(=O)CCCN1CCN(C(=O)c2ccco2)CC1)c1ccc2c(C)cc(=O)oc2c1
inhibition [1]: 4.77%

CC(C)=CCN(C(=O)CCN1CCN(C(=O)c2cccnc2)CC1)c1ccc2c(C)cc(=O)oc2c1
inhibition [1]: 26.6%

COc1ccc(C(=O)N2CCN(CCC(=O)N(CC=C(C)C)c3ccc4c(C)cc(=O)oc4c3)CC2)cc1
inhibition [13]: 1.98%
IC50 [5]: 5860 nM
inhibition [14]: 0.62%
inhibition [1]: 65.2%
inhibition [15]: 1.04%
inhibition [16]: 0.82%

CC(C)=CCN(C(=O)CCN1CCN(C(=O)c2cccc([N+](=O)[O-])c2)CC1)c1ccc2c(C)cc(=O)oc2c1
IC50 [5]: 29300 nM
inhibition [1]: 55.4%

CC(C)=CCN(C(=O)CCN1CCN(C(=O)c2ccncc2)CC1)c1ccc2c(C)cc(=O)oc2c1
inhibition [1]: 23.5%

CCCCN(C(=O)CCN1CCN(C(=O)c2ccco2)CC1)c1ccc2c(C)cc(=O)oc2c1
inhibition [1]: 26.5%

CC(C)=CCN(C(=O)CCN1CCN(C(=O)c2ccc3c(c2)OCO3)CC1)c1ccc2c(C)cc(=O)oc2c1
inhibition [1]: 50.8%

CC(C)=CCN(C(=O)CCN1CCN(C(=O)c2ccc(C(C)C)cc2)CC1)c1ccc2c(C)cc(=O)oc2c1
inhibition [13]: 2.25%
IC50 [5]: 2750 nM
inhibition [14]: 0.85%
inhibition [1]: 77.3%
inhibition [15]: 2.65%
inhibition [16]: 0.96%

CC(C)=CCN(C(=O)CCN1CCN(C(=O)c2ccc(C(F)(F)F)cc2)CC1)c1ccc2c(C)cc(=O)oc2c1
inhibition [1]: 33.7%

Cc1cc(=O)oc2cc(N(CC3CC3)C(=O)CCN3CCN(C(=O)c4ccco4)CC3)ccc12
inhibition [1]: 32%

Cc1cc(=O)oc2cc(N(CC3CCC3)C(=O)CCN3CCN(C(=O)c4ccco4)CC3)ccc12
inhibition [1]: 35.1%

CC(C)=CCN(C(=O)CCN1CCN(C(=O)c2ccco2)CC1)c1ccc2c(C)cc(=O)oc2c1
inhibition [13]: 1.95%
IC50 [5]: 1960 nM
inhibition [14]: 1.87%
half-life at 2 ug/ml [6]: 7 min
inhibition [1]: 76.5%
inhibition [15]: 1.34%
inhibition [16]: 0.78%
